Measurements reported in patent US20080009546A1 (Chevron U.S.A. Inc., priority 2005, published 2008).
Where two headings read alike, the source gives them in different places.

Tests used:
NMDA receptor [1] = test: Whole-cell voltage-clamp recordings of NMDA evoked currents in hypocretin neurons (hypothalamic slices); type: cell-based, mouse
NMDA receptor [2] = test: [3H]MK-801 binding assay, NMDA receptors in guinea pig brain membranes
Method: Hartley guinea pigs were sacrificed, and their brains were quickly removed and weighed. The brains then were homogenized in 50 mM Tris HCl buffer, pH 7.7, using a Polytron homogenizer. The homogenate was centrifuged at 40,000×g for 15 min, rehomogenized, and centrifuged again. The final pellet was resuspended in Tris-HCl, pH 7.7, at a final concentration of 6.67 mg original wet weight of tissue/ml. […] The samples were then filtered through glass fiber filters on a Tomtec cell harvester. The filters were washed 3 times with 3 ml of cold buffer. Filters were dried overnight and counted next day on a Wallac Betaplate Reader.
The binding experiments were conducted as follows. […] For each compound, graphs were prepared containing individual competition curves obtained for that compound. IC50 values and Hill coefficients were calculated using the program Prism. Ki values were calculated using the Chang Prusoff transformation: Ki=IC50/(1+L/Kd)
where L is radioligand concentration and Kd is the binding affinity of the radioligand, as determined previously by saturation analysis. […] In each experiment, one standard compound was simultaneously run on each 96 well plate.

For `CC12CC3CC(C)(C1)CC(N)(C3)C2` [memantine, 1-amino-3,5-dimethyladamantane, reference compound], the “reversibility of inhibition of NMDA evoked currents upon washout” value (NMDA receptor [1]) was “reversible”, the “inhibition of the peak amplitude of NMDA evoked currents” value (NMDA receptor [1]; 10 µM) was 41.3±10% and the “inhibition of the peak amplitude of NMDA evoked currents” value (NMDA receptor [1]; 30 µM) was 52.7±7.4%. The Ki (NMDA receptor [2]; [3H]MK-801 (1 nM), guinea pig brain membrane preparation, read-out: Ki (binding affinity)) was 730 nM, the Relative affinity (NMDA receptor [2]; compared to that of Memantine) was 1 ^ and the Ki (NMDA receptor [2]; standard compounds at the NMDA site (Table 27), read-out: Ki) was 733 ± 130 nM.
